Data reported in patent US6894168B2, “Carbamoyl tetrahydropyridine derivatives” (Taisho Pharmaceutical Co., Ltd., priority 1999, dated 2005).

Target: T1, CRF receptor (Rattus norvegicus, UniProt P35353)
T1 construct: The frontal cortex of rats was homogenized in a 50 mM Tris hydrochloric acid buffer; from tissue; host or cells: rat frontal cortex membranes
T1 sequence (P35353 24-415): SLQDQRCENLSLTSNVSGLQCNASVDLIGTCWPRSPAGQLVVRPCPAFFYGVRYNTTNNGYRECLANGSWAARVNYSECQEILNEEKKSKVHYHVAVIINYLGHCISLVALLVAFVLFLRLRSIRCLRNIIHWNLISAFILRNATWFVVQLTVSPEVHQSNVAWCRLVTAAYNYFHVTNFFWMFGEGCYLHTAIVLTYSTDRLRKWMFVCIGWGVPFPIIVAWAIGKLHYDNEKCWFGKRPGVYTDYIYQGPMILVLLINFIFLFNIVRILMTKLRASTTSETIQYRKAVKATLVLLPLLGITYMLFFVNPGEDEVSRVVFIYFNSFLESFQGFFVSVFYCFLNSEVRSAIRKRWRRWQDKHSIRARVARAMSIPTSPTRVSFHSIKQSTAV
Test: CRF receptor binding experiment (125I-CRF, rat frontal cortex membranes)
Details: frontal cortex membranes of rats 0.3 mg protein/ml; 125I-CRF 0.2 nM; 2 hours at 25° C.; read-out: IC50 (concentration of the test agent for controlling 50% of the binding of 125I-CRF)
Method: Experimental Example [CRF receptor binding experiment]
As a receptor preparation, the frontal cortex membranes of rats were employed.
As a ^125I labeled ligand, ^125I-CRF was employed.
The binding reaction employing a ^125I labeled ligand was carried out in the following method as described in The Journal of Neuroscience, 7, 88 (1987).
Preparation of the receptor membrane preparations: The frontal cortex of rats was homogenized in a 50 mM Tris hydrochloric acid buffer (pH 7.0) containing 10 mM MgCl2 and 2 mM EDTA, and subsequently, the homogenized mixture was centrifuged at 48,000×g. The precipitate was washed once with the Tris hydrochloric acid buffer. The precipitate was suspended in a 50 mM tris hydrochloric acid buffer (pH 7.0) containing 10 mM MgCl2, 2 mM EDTA, 0.1% bovine serum albumin, and 100 kalliklein unit/ml aprotinin, to produce a membrane preparation.
CRF receptor binding experiment: The membrane preparation (0.3 mg protein/ml), ^125I-CRF (0.2 nM), and a test agent were reacted for 2 hours at 25° C. […] After completion of the washing, the radioactivity of the filter paper was measured by a gamma counter.
The binding quantity obtained when the reaction was carried out in the presence of 1 μM CRF was determined as nonspecific binding of ^125I-CRF, while the difference between the total binding and the nonspecific binding was determined as a specific binding. […]

## CSc1cc(C(C)C)ccc1-n1cc(C)c2c(N3CC=C(C(N)=O)CC3)nc(C)nc21 [Com. No. 07, 4-(4-carbamoyl-1,2,3,6-tetrahydropyridin-1-yl)-2,5-dimethyl-7-(4-isopropyl-2-methylthiophenyl)-7H-pyrrolo[2,3-d]pyrimidine]
  IC50: ≤ 100 nM
